This test addresses T1, c-Met kinase (recombinant c-Met) (Homo sapiens, UniProt P08581).
T1 construct: 0.27 nM recombinant c-Met
Description: In vitro kinase assay I (homogeneous time-resolved fluorescence tyrosine kinase assay). The format is biochemical. The method, boiled down:
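Biotinylated peptide (0.5 μM) phosphorylated by 0.2 nM recombinant c-Met with 50 μM MgATP, 60 min at room temperature, pH 7.4, 5% DMSO. EDTA stop; HTRF read with Eu-anti-phosphotyrosine antibody and streptavidin-APC. IC50 from 4-parameter logistic fit.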
T1 sequence (P08581 25-1390): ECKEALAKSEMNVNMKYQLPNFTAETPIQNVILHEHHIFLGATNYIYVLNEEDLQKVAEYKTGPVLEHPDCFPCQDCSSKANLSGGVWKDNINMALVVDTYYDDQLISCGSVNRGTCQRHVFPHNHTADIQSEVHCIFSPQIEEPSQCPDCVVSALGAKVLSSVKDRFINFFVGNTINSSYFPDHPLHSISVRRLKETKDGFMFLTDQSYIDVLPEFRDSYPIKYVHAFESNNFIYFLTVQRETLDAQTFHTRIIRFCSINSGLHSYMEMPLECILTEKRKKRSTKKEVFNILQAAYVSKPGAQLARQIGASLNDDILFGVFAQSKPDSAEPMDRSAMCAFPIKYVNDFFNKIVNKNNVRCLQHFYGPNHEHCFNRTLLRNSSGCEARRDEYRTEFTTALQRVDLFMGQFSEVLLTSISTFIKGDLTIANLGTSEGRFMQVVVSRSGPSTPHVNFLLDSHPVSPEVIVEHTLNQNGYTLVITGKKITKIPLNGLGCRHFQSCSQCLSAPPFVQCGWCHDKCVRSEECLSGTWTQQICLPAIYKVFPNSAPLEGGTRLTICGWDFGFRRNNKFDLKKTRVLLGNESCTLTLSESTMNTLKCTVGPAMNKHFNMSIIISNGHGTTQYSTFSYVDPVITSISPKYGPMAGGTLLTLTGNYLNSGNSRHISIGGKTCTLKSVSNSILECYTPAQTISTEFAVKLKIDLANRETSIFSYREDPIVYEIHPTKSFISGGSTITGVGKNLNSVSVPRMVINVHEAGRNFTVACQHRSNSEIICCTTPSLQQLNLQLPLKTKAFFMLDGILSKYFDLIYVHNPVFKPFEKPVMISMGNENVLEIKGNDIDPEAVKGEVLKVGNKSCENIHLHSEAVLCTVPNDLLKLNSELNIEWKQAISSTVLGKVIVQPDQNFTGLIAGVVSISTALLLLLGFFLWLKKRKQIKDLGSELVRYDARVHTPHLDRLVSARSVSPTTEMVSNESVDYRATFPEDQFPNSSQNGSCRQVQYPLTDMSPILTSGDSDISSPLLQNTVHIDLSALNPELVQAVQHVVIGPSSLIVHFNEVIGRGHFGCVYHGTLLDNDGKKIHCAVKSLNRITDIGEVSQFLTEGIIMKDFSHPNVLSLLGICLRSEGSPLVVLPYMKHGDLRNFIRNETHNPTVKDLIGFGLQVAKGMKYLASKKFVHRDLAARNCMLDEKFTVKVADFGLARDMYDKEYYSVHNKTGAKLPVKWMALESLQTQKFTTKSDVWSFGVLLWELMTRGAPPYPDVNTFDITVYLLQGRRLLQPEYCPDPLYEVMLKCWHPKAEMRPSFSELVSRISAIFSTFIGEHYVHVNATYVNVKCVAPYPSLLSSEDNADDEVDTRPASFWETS
With `Cn1cc(-n2ccc(=O)c(Cc3cccc(-c4ccn(C)n4)c3)n2)cn1` [Example 39, 1-(1-methyl-1H-pyrazol-4-yl)-3-[3-(1-methyl-1H-pyrazol-3-yl)benzyl]pyridazin-4(1H)-one], the concentration for half-maximal inhibition (IC50) was in the range of 100 to 1000 nM.
Consider `Cn1cc(-n2ccc(=O)c(Cc3cccc(NC(=O)OCC4CCNCC4)c3)n2)cn1` [Example 617, piperidin-4-ylmethyl (3-{[1-(1-methyl-1H-pyrazol-4-yl)-4-oxo-1,4-dihydropyridazin-3-yl]methyl}phenyl)carbamate], for which the IC50 was less than 100 nM.
The result for `CC(c1cccc(-c2ncc(O[C@@H]3CCNC[C@H]3F)cn2)c1)c1nn(-c2cnn(C)c2)ccc1=O` (single isomer, unassigned) [Example 342, 3-{(1R or S)-1-[3-(5-{[(3R or S, 4R or S)-3-fluoropiperidin-4-yl]oxy}pyrimidin-2-yl)phenyl]ethyl}-1-(1-methyl-1H-pyrazol-4-yl)pyridazin-4(1H)-one] reads less than 100 nM; that for `CCCCc1nc(-c2cccc(Cc3nn(-c4cnn(C)c4)ccc3=O)c2)ncc1OCC` [Example 176, 3-[3-(4-butyl-5-ethoxypyrimidin-2-yl)benzyl]-1-(1-methyl-1H-pyrazol-4-yl)pyridazin-4(1H)-one], less than 100 nM; that for `COCCOC(=O)Nc1cccc(Cc2nn(-c3cc(F)cc(F)c3)ccc2=O)c1` [Example 507, 2-methoxyethyl (3-{[1-(3,5-difluorophenyl)-4-oxo-1,4-dihydropyridazin-3-yl]methyl}phenyl)carbamate], less than 100 nM.
Turning to `COC(=O)CCCn1cc(-n2ccc(=O)c(Cc3cccc(NC(=O)OCC(C)C)c3)n2)cn1` [Example 179, methyl 4-{4-[3-(3-{[(2-methylpropoxy)carbonyl]amino}benzyl)-4-oxopyridazin-1(4H)-yl]-1H-pyrazol-1-yl}butanoate], the IC50 was less than 100 nM.
On to `O=c1ccn(-c2ccc(F)c(F)c2)nc1Cc1cccc(-c2ncc(OCC3COCCO3)cn2)c1` (single isomer, unassigned) [Example 346, 1-(3,4-difluorophenyl)-3-(3-{5-[(2S or R-1,4-dioxan-2-ylmethoxy]pyrimidin-2-yl}benzyl)pyridazin-4(1H)-one], for which the concentration for half-maximal inhibition (IC50) was less than 100 nM.
For `CNC(=O)Nc1cccc(Cc2nn(-c3cnn(C)c3)ccc2=O)c1` [Example 487, 1-Methyl-3-(3-{[1-(1-methyl-1H-pyrazol-4-yl)-4-oxo-1,4-dihydropyridazin-3-yl]methyl}phenyl)urea], the IC50 is less than 100 nM.
The result for `O=C(Nc1cccc(Cc2nn(-c3cc(F)c(F)c(F)c3)ccc2=O)c1)OCCCN1CCNCC1` [Example 623, 3-piperazin-1-ylpropyl (3-{[4-oxo-1-(3,4,5-trifluorophenyl)-1,4-dihydropyridazin-3-yl]methyl}phenyl)carbamate] reads less than 100 nM; that for `CCn1cc(-n2ccc(=O)c(Cc3cccc(-c4ncc(OCC5CCNCC5)cn4)c3)n2)cn1` [Example 336, 1-(1-ethyl-1H-pyrazol-4-yl)-3-{3-[5-(piperidin-4-ylmethoxy)pyrimidin-2-yl]benzyl}pyridazin-4(1H)-one], less than 100 nM; that for `CC(C)COC(=O)Nc1cccc(Cc2nn(-c3cc(F)cc(F)c3)ccc2=O)c1` [Example 17, 2-methylpropyl (3-{[1-(3,5-difluorophenyl)-4-oxo-1,4-dihydropyridazin-3-yl]methyl}phenyl)carbamate], less than 100 nM.
To `Cn1cc(-n2ccc(=O)c(Cc3cccc(-c4ncc(O[C@H]5CCC[C@@H]5O)cn4)c3)n2)cn1` (single isomer, unassigned) [Example 379] belongs less than 100 nM; to `CC(C)COC(=O)Nc1cccc(Cc2nn(-c3ccn(C)n3)ccc2=O)c1` [Example 26, 2-methylpropyl (3-{[1-(1-methyl-1H-pyrazol-3-yl)-4-oxo-1,4-dihydropyridazin-3-yl]methyl}phenyl)carbamate], less than 100 nM; to `Cn1cc(-n2ccc(=O)c(Cc3cccc(-c4ncc(N)cn4)c3)n2)cn1` [Example 183, 3-[3-(5-Aminopyrimidin-2-yl)benzyl]-1-(1-methyl-1H-pyrazol-4-yl)pyridazin-4(1H)-one], less than 100 nM.
Consider `CCOC(=O)Nc1cccc(C(F)c2nn(-c3ccccc3)ccc2=O)c1` (racemic) [Example 640, rac-Ethyl-{3-[fluoro(4-oxo-1-phenyl-1,4-dihydropyridazin-3-yl)methyl]phenyl}carbamate], for which the IC50 lay within 100 to 1000 nM.
The result for `Cn1cc(-n2ccc(=O)c(Cc3cccc(-c4ncc(OCC(O)CN5CCOCC5)cn4)c3)n2)cn1` (racemic) [Example 368, rac-3-{3-[5-(2-hydroxy-3-morpholin-4-ylpropoxy)pyrimidin-2-yl]benzyl}-1-(1-methyl-1H-pyrazol-4-yl)pyridazin-4(1H)-one] reads less than 100 nM.
As for `Cn1cc(-n2ccc(=O)c(Cc3cccc(-c4ncc(C(=O)NCC5CCCOC5)cn4)c3)n2)cn1` (racemic) [Example 478, rac-2-(3-{[1-(1-methyl-1H-pyrazol-4-yl)-4-oxo-1,4-dihydro-pyridazin-3-yl]methyl}phenyl)-N-tetrahydro-2H-pyran-3-ylmethyl)pyrimidine-5-carboxamide], the IC50 was less than 100 nM.
The result for `CCn1cc(-n2ccc(=O)c(Cc3cccc(-c4ncc(OCC(F)F)cn4)c3)n2)cn1` [Example 306, 3-{3-[5-(2,2-difluoroethoxy)pyrimidin-2-yl]benzyl}-1-(1-ethyl-1H-pyrazol-4-yl)pyridazin-4(1H)-one] reads less than 100 nM.
Regarding `CC(c1cccc(-c2ncc(OC(F)F)cn2)c1)c1nn(-c2cnn(C)c2)ccc1=O` (single isomer, unassigned) [Example 209, 3-[(1S or R)-1-{3-[5-(difluoromethoxy)pyrimidin-2-yl]phenyl}ethyl]-1-(1-methyl-1H-pyrazol-4-yl)pyridazin-4(1H)-one], the IC50 was in the range of 100 to 1000 nM.
Regarding `Cc1nc(COc2cnc(-c3cccc(Cc4nn(-c5cnn(C)c5)ccc4=O)c3)nc2)no1` [Example 281, 3-(3-{5-[(5-methyl-1,2,4-oxadiazol-3-yl)methoxy]pyrimidin-2-yl}benzyl)-1-(1-methyl-1H-pyrazol-4-yl)pridazin-4(1H)-one], the concentration for half-maximal inhibition (IC50) was less than 100 nM.
The result for `O=C(Nc1cccc(Cc2nn(-c3cc(F)c(F)c(F)c3)ccc2=O)c1)OCCN1CCS(=O)(=O)CC1` [Example 515, 2-(1,1-dioxidothio-morpholin-4-yl)ethyl (3-{[4-oxo-1-(3,4,5-trifluorophenyl)-1,4-dihydropyridazin-3-yl]methyl}phenyl)carbamate] reads less than 100 nM; that for `CCOc1cnc(-c2cccc(Cc3nn(-c4ccc(C(=O)NC)c(F)c4)ccc3=O)c2)nc1` [Example 723], less than 100 nM; that for `COC(C)(C)Cn1cnc(-c2cccc(Cc3nn(-c4cnn(C)c4)ccc3=O)c2)n1` [Example 719, 3-{3-[1-(2-methoxy-2-methylpropyl)-1H-1,2,4-triazol-3-yl]benzyl}-1-(1-methyl-1H-pyrazol-4-yl)pyridazin-4(1H)-one], less than 100 nM.
`CC(c1cccc(-c2ncc(N3CCOCC3)cn2)c1)c1nn(-c2cnn(C)c2)ccc1=O` (single isomer, unassigned) [Example 243, 1,1-methyl-1H-pyrazol-4-yl)-3-{(1S or R)-1-[3-(5-morpholin-4-ylpyrimidin-2-yl)phenyl]ethyl}pyridazin-4(1H) one]: the 50% inhibitory concentration (IC50) is less than 100 nM.
In the case of `CCc1cnc(-c2cccc(Cc3nn(-c4cnn(C)c4)ccc3=O)c2)nc1` [Example 391, 3-[3-(5-Ethylpyrimidin-2-yl)benzyl]-1-(1-methyl-1H-pyrazol-4-yl)pyridazin-4(1H)-one], the IC50 is less than 100 nM.
`COCCOc1cnc(-c2cccc(Cc3nn(-c4cc(F)c(F)c(F)c4)ccc3=O)c2)nc1` [Example 318, 3-{3-[5-(2-methoxyethoxy)pyrimidin-2-yl]benzyl}-1-(3,4,5-trifluorophenyl)pyridazin-4(1H)-one]: the 50% inhibitory concentration (IC50) is less than 100 nM.
To `COCCOc1cnc2ccc(Cc3nn(-c4cnn(C)c4)ccc3=O)cc2c1` [Example 61, 3-{[3-(2-methoxyethoxy)quinolin-6-yl]methyl}-1-(1-methyl-1H-pyrazol-4-yl)pyridazin-4(1H)-one] belongs 100 to 1000 nM; to `O=C(Nc1cccc(Cc2nn(-c3cc(F)cc(F)c3)ccc2=O)c1)OCCN1CCOCC1` [Example 523, 2-morpholin-4-ylethyl (3-{[1-(3,5-difluorophenyl)-4-oxo-1,4-dihydropyridazin-3-yl]methyl}phenyl)carbamate], less than 100 nM.
Consider `CCCOC(=O)Nc1cccc(Cc2nn(-c3ccc(OC)nc3)ccc2=O)c1` [Example 32, propyl (3-{[1-(6-methoxypyridin-3-yl)-4-oxo-1,4-dihydropyridazin-3-yl]methyl}phenyl)carbamate], for which the IC50 is less than 100 nM.
The result for `Cn1cc(-n2ccc(=O)c(Cc3cccc(NC(=O)OCC4(F)CCNCC4)c3)n2)cn1` [Example 620, (4-fluoropiperidin-4-yl)methyl (3-{[1-(1-methyl-1H-pyrazol-4-yl)-4-oxo-1,4-dihydropyridazin-3-yl]methyl}phenyl)carbamate] reads less than 100 nM; that for `CN(C)C(=O)CCn1cnc(-c2cccc(Cc3nn(-c4cnn(C)c4)ccc3=O)c2)n1` [Example 710, N,N-dimethyl-3-[3-(3-{[1-(1-methyl-1H-pyrazol-4-yl)-4-oxo-1,4-dihydropyridazin-3-yl]methyl}phenyl)-1H-1,2,4-triazol-1-yl]propanamide], 100 to 1000 nM.
The result for `COc1cnc(-c2cccc(Cc3nn(-c4cncc(C#N)c4)ccc3=O)c2)nc1` [Example 733, 5-{3-[3-(5-Methoxypyrimidin-2-yl)benzyl]-4-oxopyridazin-1(4h)-yl}pyridine-3-carbonitrile] reads less than 100 nM.
The result for `CCOc1cnc(-c2cccc(Cc3nn(-c4cn[nH]c4)ccc3=O)c2)nc1` [Example 195, 3-[3-(5-Ethoxypyrimidin-2-yl)benzyl]-1-(1H-pyrazol-4-yl)pyridazin-4(1H)-one] reads less than 100 nM.

In general, IC50 refers to the concentration at which inhibition is half-maximal.
